PubChem BioAssay AID1963864 (Molecular Pharmacology Branch, DTP, NCI, 2024)

Test system: KRAS PDC multicell spheroid viability
Test: Anticancer human tumor 521955-158-R6-J3-PDC patient-derived pancreatic carcinoma cell line growth inhibition [KRAS2]
Conditions: for IC50: curve of first compound; for viability, T/C: stronger effect = lower value
Excerpt: Multicellular complex tumor spheroid response to RAS pathway inhibitors in combination with a targeted agents in patient-derived cell lines with oncogenic KRAS variants from multiple cancer types
A high-throughput screen of multi-cell type tumor spheroids was designed to identify active combinations of targeted small molecules and KRAS pathway inhibitors. Complex spheroids include a stromal component modeled by human endothelial cells (HUVEC) and fibroblasts modeled by human mesenchymal stem cells (MSCs). The concentration ranges selected for each drug and investigational agent were based upon clinically achievable concentrations if the clinical Cmax of the agent was known.
Compounds. The drugs and investigational agents: BI-3406 (NSC825286), BAY-293 (NSC824723), batoprotafib (TNO155; NSC825523), sotorasib (AMG 510; NSC818433), MRTX1257 (NSC819558), elimusertib (BAY 1895344; NSC800525), molibresib (GSK525762; NSC774829), temuterkib (LY3214996; NSC803410), venetoclax (NSC766270), alisertib (NSC759677), olaparib (NSC753686), talazoparib (NSC767125), erdafitinib (NSC781556), ipatasertib (NSC767898), cabozantinib (NSC761068), nintedanib (NSC756659), abemaciclib (NSC768073), docetaxel (NSC628503), trametinib (NSC758246), and sapanisertib (NSC764658) were obtained from the National Cancer Institute (NCI) Developmental Therapeutics Program Chemical Repository. The FDA-approved anticancer drug set is available from the Developmental Therapeutics Program. […] The stock solutions were prepared in dimethyl sulfoxide (DMSO, Sigma-Aldrich, St. Louis, MO, cat. D2650) at 800-fold the tested concentration and stored at -70 degrees C prior to their use. All drugs and investigational agents were tested over a range starting from a high concentration at or near the clinical Cmax and decreasing in half-log increments. If the clinical Cmax for an agent had not been determined, the highest concentration tested was 10 microM.
Cell Culture. All cells were maintained in an incubator at 37 degrees C and 5% CO2 with 95% humidity. The PDC lines were cultured according to standard operating procedures established by the NCI PDMR (https://pdmr.cancer.gov/sops/default.htm). Briefly, all PDCs were thawed and cultured in Matrigel-coated flasks prepared with a working solution of 1X Ham's F-12 nutrient mix, without supplementation (Invitrogen, Waltham, MA, cat. 11765054), 100 U/mL penicillin-streptomycin (Invitrogen, cat. 15140122), and 2.5% Matrigel (Corning Inc., Corning, NY, cat. 354248) for the first three passages. All PDCs were cultured in complete DMEM/F-12 media containing advanced DMEM/F-12 (Invitrogen, cat. 12634028), 4.9% defined fetal bovine serum, heat inactivated (HyClone Laboratories Inc., Logan, UT, cat. SH30070.03HI), 389 ng/mL hydrocortisone (Sigma-Aldrich, cat. H4001), 9.7 ng/mL human EGF recombinant protein (Invitrogen, cat. PHG0313), 23.4 microg/mL adenine (Sigma-Aldrich, cat. A2786), 97.3 U/mL penicillin-streptomycin (Invitrogen, cat. 15140122), 1.9 mM L-glutamine (Invitrogen, cat. 25030081), and 9.7 microM Y-27632 dihydrochloride (Tocris Bioscience, Bristol, United Kingdom, cat. 1254). The PDCs were cultured in complete DMEM/F12 media without 9.7 microM Y-27632 dihydrochloride for at least two passages prior to the screen. The established cell line HOP-62 was cultured in RPMI 1640 medium, HEPES (Invitrogen, cat. 22400105) with 10% defined fetal bovine serum (HyClone Laboratories Inc., cat. SH30070.03) and 2 mM L-glutamine (Invitrogen, cat. 25030081). The pooled donor HUVEC were cultured in endothelial cell growth medium 2 (PromoCell, Heidelberg, Germany, cat. C-22011) and the hMSC were cultured in mesenchymal stem cell growth medium 2 (PromoCell, cat. C-28009). For all experiments, HUVEC and hMSC were used at passages </=5, while the malignant cell lines were used at passages </=15. […]

[1] = second compound 0.1 µM, first compound 0.0316 µM
[2] = second compound 0.1 µM, first compound 0.1 µM
[3] = second compound 0.316 µM, first compound 0.0316 µM
[4] = second compound 0.316 µM, first compound 0.1 µM
[5] = second compound 1 µM, first compound 0.0316 µM
[6] = second compound 1 µM, first compound 0.1 µM
[7] = second compound 3.16 µM, first compound 0.0316 µM
[8] = second compound 3.16 µM, first compound 0.1 µM
[9] = second compound 10 µM, first compound 0.0316 µM
[10] = second compound 10 µM, first compound 0.1 µM
[11] = second compound 0.1 µM, first compound 0.316 µM
[12] = second compound 0.1 µM, first compound 1 µM
[13] = second compound 0.1 µM, first compound 3.16 µM
[14] = second compound 0.1 µM, first compound 10 µM
[15] = second compound 0.316 µM, first compound 0.316 µM
[16] = second compound 0.316 µM, first compound 1 µM
[17] = second compound 0.316 µM, first compound 3.16 µM
[18] = second compound 0.316 µM, first compound 10 µM
[19] = second compound 1 µM, first compound 0.316 µM
[20] = second compound 1 µM, first compound 1 µM
[21] = second compound 1 µM, first compound 3.16 µM
[22] = second compound 1 µM, first compound 10 µM
[23] = second compound 3.16 µM, first compound 0.316 µM
[24] = second compound 3.16 µM, first compound 1 µM
[25] = second compound 3.16 µM, first compound 3.16 µM
[26] = second compound 3.16 µM, first compound 10 µM
[27] = second compound 10 µM, first compound 0.316 µM
[28] = second compound 10 µM, first compound 1 µM
[29] = second compound 10 µM, first compound 3.16 µM
[30] = second compound 10 µM, first compound 10 µM
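Note: drug exposure lasted seven days.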
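Throughout, for viability, T/C: 100% = DMSO vehicle wells and lower means fewer viable cells.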

CC(C)n1nc(-c2ccc3oc(N)nc3c2)c2c(N)ncnc21 + C=CC(=O)N1CCN(c2nc(=O)n(-c3c(C)ccnc3C(C)C)c3nc(-c4c(O)cccc4F)c(F)cc23)C(C)C1
IC50 (second compound 0.1 µM): > 0.1 µM
IC50 (second compound 0.316 µM): > 0.1 µM
IC50 (second compound 1 µM): > 0.1 µM
IC50 (second compound 3.16 µM): > 0.1 µM
IC50 (second compound 10 µM): 0.0848 µM
viability, T/C (second compound 0.1 µM, first compound 0.000316 µM): 96.2%
viability, T/C (second compound 0.1 µM, first compound 0.001 µM): 90.9%
viability, T/C (second compound 0.1 µM, first compound 0.00316 µM): 75.6%
viability, T/C (second compound 0.1 µM, first compound 0.01 µM): 67.9%
viability, T/C [1]: 62.5%
viability, T/C [2]: 55.4%
viability, T/C (second compound 0.316 µM, first compound 0.000316 µM): 91.7%
viability, T/C (second compound 0.316 µM, first compound 0.001 µM): 97.7%
viability, T/C (second compound 0.316 µM, first compound 0.00316 µM): 92.8%
viability, T/C (second compound 0.316 µM, first compound 0.01 µM): 70.8%
viability, T/C [3]: 66.9%
viability, T/C [4]: 53.3%
viability, T/C (second compound 1 µM, first compound 0.000316 µM): 97.8%
viability, T/C (second compound 1 µM, first compound 0.001 µM): 90.6%
viability, T/C (second compound 1 µM, first compound 0.00316 µM): 77.3%
viability, T/C (second compound 1 µM, first compound 0.01 µM): 71.9%
viability, T/C [5]: 67.4%
viability, T/C [6]: 53.5%
viability, T/C (second compound 3.16 µM, first compound 0.000316 µM): 93%
viability, T/C (second compound 3.16 µM, first compound 0.001 µM): 93%
viability, T/C (second compound 3.16 µM, first compound 0.00316 µM): 81.4%
viability, T/C (second compound 3.16 µM, first compound 0.01 µM): 70.2%
viability, T/C [7]: 66.7%
viability, T/C [8]: 56.4%
viability, T/C (second compound 10 µM, first compound 0.000316 µM): 99%
viability, T/C (second compound 10 µM, first compound 0.001 µM): 89.9%
viability, T/C (second compound 10 µM, first compound 0.00316 µM): 74.6%
viability, T/C (second compound 10 µM, first compound 0.01 µM): 77.2%
viability, T/C [9]: 59.8%
viability, T/C [10]: 47.5%

CC1(C)CCC(CN2CCN(c3ccc(C(=O)NS(=O)(=O)c4ccc(NCC5CCOCC5)c([N+](=O)[O-])c4)c(Oc4cnc5[nH]ccc5c4)c3)CC2)=C(c2ccc(Cl)cc2)C1 + C=CC(=O)N1CCN(c2nc(=O)n(-c3c(C)ccnc3C(C)C)c3nc(-c4c(O)cccc4F)c(F)cc23)C(C)C1
IC50 (second compound 0.1 µM): 5.94 µM
IC50 (second compound 0.316 µM): 7.34 µM
IC50 (second compound 1 µM): 4.83 µM
IC50 (second compound 3.16 µM): 6.49 µM
IC50 (second compound 10 µM): 2.96 µM
viability, T/C [1]: 89.3%
viability, T/C [2]: 98.8%
viability, T/C [11]: 97.1%
viability, T/C [12]: 93.2%
viability, T/C [13]: 72.2%
viability, T/C [14]: 31.6%
viability, T/C [3]: 113%
viability, T/C [4]: 112%
viability, T/C [15]: 101%
viability, T/C [16]: 102%
viability, T/C [17]: 77.5%
viability, T/C [18]: 39.5%
viability, T/C [5]: 111%
viability, T/C [6]: 104%
viability, T/C [19]: 106%
viability, T/C [20]: 95.8%
viability, T/C [21]: 65.4%
viability, T/C [22]: 23.4%
viability, T/C [7]: 91.9%
viability, T/C [8]: 93.5%
viability, T/C [23]: 95.2%
viability, T/C [24]: 92.1%
viability, T/C [25]: 67.2%
viability, T/C [26]: 39.6%
viability, T/C [9]: 89.2%
viability, T/C [10]: 104%
viability, T/C [27]: 88.7%
viability, T/C [28]: 73.5%
viability, T/C [29]: 49.8%
viability, T/C [30]: 25.7%

COc1cc2nccc(Oc3ccc(NC(=O)C4(C(=O)Nc5ccc(F)cc5)CC4)cc3)c2cc1OC + C=CC(=O)N1CCN(c2nc(=O)n(-c3c(C)ccnc3C(C)C)c3nc(-c4c(O)cccc4F)c(F)cc23)C(C)C1
IC50 (second compound 0.1 µM): > 10 µM
IC50 (second compound 0.316 µM): > 10 µM
IC50 (second compound 1 µM): > 10 µM
IC50 (second compound 3.16 µM): > 10 µM
IC50 (second compound 10 µM): > 10 µM
viability, T/C [1]: 91.9%
viability, T/C [2]: 96.8%
viability, T/C [11]: 96.7%
viability, T/C [12]: 98.1%
viability, T/C [13]: 119%
viability, T/C [14]: 111%
viability, T/C [3]: 95.3%
viability, T/C [4]: 91.3%
viability, T/C [15]: 102%
viability, T/C [16]: 99.2%
viability, T/C [17]: 115%
viability, T/C [18]: 122%
viability, T/C [5]: 89.8%
viability, T/C [6]: 106%
viability, T/C [19]: 96.9%
viability, T/C [20]: 104%
viability, T/C [21]: 119%
viability, T/C [22]: 120%
viability, T/C [7]: 85.5%
viability, T/C [8]: 82.9%
viability, T/C [23]: 87.4%
viability, T/C [24]: 85%
viability, T/C [25]: 99.1%
viability, T/C [26]: 90.8%
viability, T/C [9]: 64.9%
viability, T/C [10]: 66.2%
viability, T/C [27]: 52.2%
viability, T/C [28]: 64.8%
viability, T/C [29]: 53%
viability, T/C [30]: 69.9%
